The test system of experiment [1] is P. aeruginosa (ATCC 15442). The experiment is described as follows: MIC and MBC, microtiter plate technique. Type of experiment: cell-based. Conditions: ATCC15442, Pseudomonas aeruginosa; for MIC: 24 h, resazurin; for MBC: TTC. For orientation: Alamar Blue is a resazurin reagent that responds to reducing activity.
A further experiment deals with E. coli R2 (ATCC 39544). Nature of the experiment: MIC and MBC, microtiter plate technique. Type of experiment: cell-based. Conditions: Escherichia coli; for MBC: ATCC39544; for MIC: ATCC39544, 24 h.
For another experiment, the system named is E. coli R3 (ATCC 11775). Nature of the experiment: MIC and MBC, microtiter plate technique. Type of experiment: cell-based. Conditions: Escherichia coli; for MIC: ATCC11775, 24 h, resazurin; for MBC: ATCC11775, TTC.
A further experiment has as its system E. cloacae (ATCC 49141). The experiment is described as follows: MIC and MBC, microtiter plate technique. Type of experiment: cell-based. Conditions: ATCC49141, Enterobacter cloacae; for MIC: 24 h, resazurin; for MBC: TTC.
For another experiment, the system named is S. aureus (ATCC 23235). Nature of the experiment: microbe, parasite or virus in culture. The note with it: Staphylococcus aureus; for MBC: ATCC23235; for MIC: ATCC23235, 24 h. Type of experiment: cell-based.
Experiment [2] has as its system A. baumannii (ATCC 17978). The experiment is described as follows: MIC and MBC, microtiter plate technique. Type of experiment: cell-based. Conditions: ATCC17978, Acinetobacter baumannii; for MIC: 24 h, resazurin; for MBC: TTC.
The next experiment deals with E. coli K12 (ATCC 25404). The experiment is described as follows: MIC and MBC, microtiter plate technique. Type of experiment: cell-based. Conditions: Escherichia coli; for MBC: ATCC25404; for MIC: ATCC25404, 24 h.
For another experiment, the system named is E. coli R4 (ATCC 39543). The experiment is described as follows: MIC and MBC, microtiter plate technique. Type of experiment: cell-based. Conditions: Escherichia coli; for MBC: ATCC39543; for MIC: ATCC39543, 24 h.
The target in experiment [3] is T1, mushroom tyrosinase (mTYR) (Agaricus bisporus, UniProt C7FF04).
T1 construct: purchased Sigma-Aldrich (Poznan, Poland); host or cells: Agaricus bisporus (extracted natural enzyme)
Nature of the experiment: Tyrosinase assay with L-DOPA as substrate (absorbance at 475 nm). Type of experiment: biochemical. Conditions: 100 µM compound. The source says: Tyrosinase (Tyr) extracted from Agaricus bisporus (mushroom tyrosinase, mTYR) is commonly used as a model enzyme for human Tyr due to its high purity, stability, and commercial availability. It is frequently used in the selection of TYR inhibitors. Following established literature protocols, L-tyrosine and L-DOPA, which serve as substrates for monophenol and diphenol oxidation, respectively, were used to assess the tyrosinase inhibitory activity of synthesized target compounds [21].
Tyrosinase (Tyr) activity was measured using L-DOPA as substrate and phosphate buffer solution (PBS) as blank control, following the method described by Min He et al. (2022) with an ultraviolet spectrophotometer (Carry-300, Agilent Life Sciences and Chemical Analysis, Santa Clara, CA, USA). […] Before the experiment, 2.9 mL of PBS and 0.1 mL of DMSO were used to account for the influence of the background solvent. The inhibitor solution (100 µL), substrate solution (2.8 mL), and Tyr solution (100 µL) were then added to a quartz colorimetric cuvette. After a one-minute mixing period, the absorption spectra of the mixture were continuously recorded at 475 nm using the UV spectrophotometer (Carry-300) for 5 min over a period of every 30 s. The tyrosinase inhibition rate was calculated as follows:Relative enzyme activity (%) = (A1 − A2)/A1 × 100
A1 = Absorbance of L-DOPA and inhibitor.
A2 = Absorbance of L-DOPA, inhibitor, and tyrosinase.

Converted amounts (≈) assume the structure as drawn.

Drawing on article PMC11855086, “Synthesis, Antimicrobial Activity, and Tyrosinase Inhibition by Multifunctional 3,4-Dihydroxy-Phenyl Peptidomimetics” (International Journal of Molecular Sciences, 2025), this text covers MIC, MBC and inhibition for five molecules.

T1 sequence (C7FF04 1-392 limits assumed): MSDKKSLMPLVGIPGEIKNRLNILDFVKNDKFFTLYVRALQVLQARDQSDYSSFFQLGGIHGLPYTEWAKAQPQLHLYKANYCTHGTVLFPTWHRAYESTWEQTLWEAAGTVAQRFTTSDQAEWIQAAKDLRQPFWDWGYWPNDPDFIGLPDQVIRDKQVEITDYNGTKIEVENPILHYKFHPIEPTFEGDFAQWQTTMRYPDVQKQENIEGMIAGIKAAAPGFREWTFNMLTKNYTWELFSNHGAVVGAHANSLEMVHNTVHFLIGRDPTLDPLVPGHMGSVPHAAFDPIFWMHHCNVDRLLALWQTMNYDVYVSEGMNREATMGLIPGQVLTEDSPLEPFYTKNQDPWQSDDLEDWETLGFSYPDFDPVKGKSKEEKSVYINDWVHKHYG

As for `COc1ccc(CN(C(C)=O)C(C(=O)NCc2ccccc2)c2ccc(O)c(O)c2)cc1` (stereo not shown) [Compound 5j, N-benzyl-2-(3,4-dihydroxyphenyl)-2-(N-(4-methoxybenzyl)acetamido)acetamide], the MIC in [1] was 0.77 µM (≈ 0.335 µg/mL); in the experiment on E. coli R2 (ATCC 39544), 0.74 µM (≈ 0.322 µg/mL); against E. coli R3 (ATCC 11775) it was 1.08 µM (≈ 0.469 µg/mL); with E. cloacae (ATCC 49141), 0.76 µM (≈ 0.33 µg/mL); against S. aureus (ATCC 23235), 0.78 µM (≈ 0.339 µg/mL); in experiment [2], 0.8 µM (≈ 0.348 µg/mL). For the same molecule, the MIC against E. coli K12 (ATCC 25404) amounted to 0.26 µM (≈ 0.113 µg/mL); against E. coli R4 (ATCC 39543), 1.22 µM (≈ 0.53 µg/mL). For the same molecule, the MBC in [1] is 0.82 µM (≈ 0.356 µg/mL); against E. coli R2 (ATCC 39544), 1.19 µM (≈ 0.517 µg/mL); with E. coli R3 (ATCC 11775) it was 1.28 µM (≈ 0.556 µg/mL); against E. cloacae (ATCC 49141), 0.81 µM (≈ 0.352 µg/mL); against S. aureus (ATCC 23235), 0.74 µM (≈ 0.322 µg/mL); in [2], 0.85 µM (≈ 0.369 µg/mL). In addition, the MBC with E. coli K12 (ATCC 25404) was 0.82 µM (≈ 0.356 µg/mL); against E. coli R4 (ATCC 39543), 1.47 µM (≈ 0.639 µg/mL).
On to `COc1ccc(CNC(=O)C(c2ccc(O)c(O)c2)N(C(C)=O)C2CCCCC2)cc1` (stereo not shown) [Compound 5n, 2-(N-cyclohexylacetamido)-2-(3,4-dihydroxyphenyl)-N-(4-methoxybenzyl)acetamide], for which the MIC in experiment [1] was determined as 0.78 µM (≈ 0.333 µg/mL); against E. coli R2 (ATCC 39544), 0.76 µM (≈ 0.324 µg/mL); with E. coli R3 (ATCC 11775), 1.1 µM (≈ 0.469 µg/mL); in the experiment on E. cloacae (ATCC 49141) it was 0.8 µM (≈ 0.341 µg/mL); in the experiment on S. aureus (ATCC 23235) it was 0.72 µM (≈ 0.307 µg/mL); in [2], 0.75 µM (≈ 0.32 µg/mL). In addition, the MIC in the experiment with E. coli K12 (ATCC 25404) turned out to be 0.39 µM (≈ 0.166 µg/mL); in the experiment with E. coli R4 (ATCC 39543) it was 1.48 µM (≈ 0.631 µg/mL). Besides, the MBC is 0.82 µM (≈ 0.35 µg/mL) in experiment [1]; 1.3 µM (≈ 0.554 µg/mL) in the experiment with E. coli R2 (ATCC 39544); 1.3 µM (≈ 0.554 µg/mL) against E. coli R3 (ATCC 11775); 0.8 µM (≈ 0.341 µg/mL) against E. cloacae (ATCC 49141); 0.83 µM (≈ 0.354 µg/mL) in the experiment on S. aureus (ATCC 23235); 0.79 µM (≈ 0.337 µg/mL) in experiment [2]. In addition, the MBC in the experiment on E. coli K12 (ATCC 25404) is 0.77 µM (≈ 0.328 µg/mL); with E. coli R4 (ATCC 39543), 1.44 µM (≈ 0.614 µg/mL).
As for `CC(=O)N(C1CCCCC1)C(C(=O)NCc1ccc(F)cc1)c1ccc(O)c(O)c1` (stereo not shown) [Compound 5o, 2-(N-cyclohexylacetamido)-2-(3,4-dihydroxyphenyl)-N-(4-fluorobenzyl)acetamide], the MIC in [1] stood at 0.73 µM (≈ 0.303 µg/mL); against E. coli R2 (ATCC 39544), 0.79 µM (≈ 0.327 µg/mL); in the experiment with E. coli R3 (ATCC 11775), 1.01 µM (≈ 0.419 µg/mL); against E. cloacae (ATCC 49141), 0.8 µM (≈ 0.332 µg/mL); against S. aureus (ATCC 23235), 0.74 µM (≈ 0.307 µg/mL); in experiment [2], 0.75 µM (≈ 0.311 µg/mL). Further, the MIC in the experiment on E. coli K12 (ATCC 25404) stood at 0.3 µM (≈ 0.124 µg/mL); in the experiment with E. coli R4 (ATCC 39543) it was 1.52 µM (≈ 0.63 µg/mL). Also, the MBC in experiment [1] was found to be 0.86 µM (≈ 0.356 µg/mL); against E. coli R2 (ATCC 39544), 1.23 µM (≈ 0.51 µg/mL); in the experiment on E. coli R3 (ATCC 11775), 1.45 µM (≈ 0.601 µg/mL); against E. cloacae (ATCC 49141), 0.84 µM (≈ 0.348 µg/mL); against S. aureus (ATCC 23235), 0.81 µM (≈ 0.336 µg/mL); in experiment [2] it was 0.81 µM (≈ 0.336 µg/mL). For the same molecule, the MBC against E. coli K12 (ATCC 25404) is 0.86 µM (≈ 0.356 µg/mL); in the experiment on E. coli R4 (ATCC 39543), 1.47 µM (≈ 0.609 µg/mL). Also, in experiment [3], the inhibition – broadly, the drop in the measured response relative to a control, in per cent – at 100 µM was greater than 10%.
Regarding `CCCCN(C(=O)Cc1ccccc1)C(C(=O)NCc1ccccc1)c1ccc(O)c(O)c1` (stereo not shown) [Compound 5g, N-benzyl-2-(N-butyl-2-phenylacetamido)-2-(3,4-dihydroxyphenyl)acetamide], the MIC in experiment [1] is 0.7 µM (≈ 0.313 µg/mL); against E. coli R2 (ATCC 39544), 0.94 µM (≈ 0.42 µg/mL); in the experiment on E. coli R3 (ATCC 11775), 1.02 µM (≈ 0.455 µg/mL); in the experiment with E. cloacae (ATCC 49141), 0.72 µM (≈ 0.322 µg/mL); in the experiment with S. aureus (ATCC 23235) it was 0.73 µM (≈ 0.326 µg/mL); in [2], 0.79 µM (≈ 0.353 µg/mL). Moreover, the MIC with E. coli K12 (ATCC 25404) worked out at 0.42 µM (≈ 0.188 µg/mL); in the experiment on E. coli R4 (ATCC 39543), 1.5 µM (≈ 0.67 µg/mL). Also, the MBC came out at 0.78 µM (≈ 0.348 µg/mL) in [1]; 1.23 µM (≈ 0.549 µg/mL) in the experiment with E. coli R2 (ATCC 39544); 1.23 µM (≈ 0.549 µg/mL) in the experiment on E. coli R3 (ATCC 11775); 0.77 µM (≈ 0.344 µg/mL) with E. cloacae (ATCC 49141); 0.8 µM (≈ 0.357 µg/mL) against S. aureus (ATCC 23235); 0.82 µM (≈ 0.366 µg/mL) in experiment [2]. Besides, the MBC with E. coli K12 (ATCC 25404) was 0.71 µM (≈ 0.317 µg/mL); against E. coli R4 (ATCC 39543) it was 1.41 µM (≈ 0.63 µg/mL). Also, the inhibition at 100 µM in experiment [3] was greater than 10%.
On to `COc1ccc(CNC(=O)C(c2ccc(O)c(O)c2)N(Cc2ccc(OC)cc2)C(C)=O)cc1` (stereo not shown) [Compound 5k, 2-(3,4-dihydroxyphenyl)-N-(4-methoxybenzyl)-2-(N-(4-methoxybenzyl)acetamido)-acetamide], for which the MIC in experiment [1] turned out to be 1.15 µM (≈ 0.534 µg/mL); in the experiment on E. coli R2 (ATCC 39544), 1.27 µM (≈ 0.59 µg/mL); against E. coli R3 (ATCC 11775), 2.13 µM (≈ 0.989 µg/mL); in the experiment on E. cloacae (ATCC 49141) it was 1.14 µM (≈ 0.53 µg/mL); with S. aureus (ATCC 23235), 1.18 µM (≈ 0.548 µg/mL); in [2] it was 0.93 µM (≈ 0.432 µg/mL). The results for the MIC in the experiment on E. coli K12 (ATCC 25404) and in the experiment with E. coli R4 (ATCC 39543) were 0.58 µM (≈ 0.269 µg/mL) and 2.55 µM (≈ 1.18 µg/mL), respectively. In addition, the MBC came to 1.21 µM (≈ 0.562 µg/mL) in experiment [1]; 1.27 µM (≈ 0.59 µg/mL) against E. coli R2 (ATCC 39544); 2.58 µM (≈ 1.2 µg/mL) in the experiment with E. coli R3 (ATCC 11775); 1.26 µM (≈ 0.585 µg/mL) against E. cloacae (ATCC 49141); 1.18 µM (≈ 0.548 µg/mL) against S. aureus (ATCC 23235); 1 µM (≈ 0.465 µg/mL) in [2]. For the same molecule, the results for the MBC in the experiment on E. coli K12 (ATCC 25404) and in the experiment on E. coli R4 (ATCC 39543) were 0.79 µM (≈ 0.367 µg/mL) and 2.82 µM (≈ 1.31 µg/mL), respectively.
